Assay results from patent US20170368148A1, “USES OF A PTHrP ANALOGUE IN REDUCING FRACTURE RISK” (RADIUS HEALTH, INC., priority 2015, published 2017).

Key:
Assay type in all cases: in vivo, human
[1] = system: postmenopausal women with osteoporosis; assay: ACTIVE phase 3 trial: fracture rates and fracture risk reduction, 18 months; conditions: abaloparatide 80 μg or teriparatide 20 μg daily SC
Experimental: (§1) The ACTIVE phase 3 fracture prevention trial was conducted for abaloparatide in postmenopausal women with osteoporosis who were otherwise healthy. The enrolled subjects were treated with 80 micrograms (μg) of abaloparatide, a matching placebo, or the approved daily dose of 20 μg of teriparatide for 18 months. The ACTIVE trial evaluated fracture rates, fracture risks, BMD, and bone turnover biomarkers (e.g., CTX and P1NP) in all patient groups.
Fracture risk reduction and hazard ratio (HR) were derived from Kaplan-Meier (KM) curve.
The ACTIVE pivotal Phase 3 fracture prevention trial for the PTHrP analogue abaloparatide, Study BA058-05-003 (see ClinicalTrials.gov), was a randomized, double-blind, placebo-controlled trial in postmenopausal osteoporotic women randomized to receive daily doses of one of the following for 18 months: 80 micrograms (μg) of abaloparatide; a matching placebo; or the approved daily dose of 20 μg of teriparatide. Treatment with abaloparatide at a daily dose of 80 μg or placebo remained blinded to all parties throughout the study. Teriparatide used was a proprietary prefilled drug and device combination that could not be repackaged. Therefore, its identity could not be blinded to treating physicians and patients once use began. Study medication was self-administered daily by subcutaneous injection for a maximum of 18 months. All enrolled patients also received calcium and vitamin D supplementation from the time of enrollment until the end of the treatment period. It was recommended to patients that they also continue these supplements through the one-month follow-up period.
The trial completed enrollment in March 2013 with 2,463 patients at 28 medical centers in 10 countries in the United States, Europe, Latin America, and Asia. The baseline characteristics of the selected patients are detailed in Table 3 below.
The study enrolled otherwise healthy ambulatory women aged 49 to 86 (inclusive) who had been postmenopausal for at least five years, met the study entry criteria, and had provided written informed consent. […] All patients were to be in good general health as determined by medical history, physical examination (including vital signs), and clinical laboratory testing. This study population contained a patient population reflective of the type of severe osteoporosis patients that specialists would be expected to treat in their practices.
As set forth in the ACTIVE protocol, the primary efficacy endpoint was the number of patients treated with abaloparatide with incident vertebral fractures at the end of treatment as compared to those who received placebo. The pre-specified secondary efficacy parameters included, among other endpoints, reduction in the incidence/risk of non-vertebral fractures; changes in BMD of the spine, hip, and femoral neck from baseline to end of treatment as assessed by DXA and as compared to teriparatide; and the number of hypercalcemic events in abaloparatide treated patients when compared to teriparatide at end of treatment.

[2] = system: postmenopausal women with osteoporosis; assay: Phase 2 24-week dose-finding trial (48-week extension): BMD by DXA
Source text: Healthy postmenopausal women between the ages of 55 to 85 (based on a 5-year history of amenorrhea and an elevated serum level of FSH) were enrolled in the study if they met one of the following the following definitions of osteoporosis:
Dual X-ray absorptiometry: DXA scans were obtained at each local site and then sent to a central imaging reader (BioClinica Inc. Newton, PA) where they underwent a quality control review and then analyzed according to each manufacturers guidelines. Scans performed during the treatment period on the same instrument used for the baseline scan were acquired. Each study site performed Instrument Quality Control over time (instrument standardization and phantom calibration) that was reviewed by the central reader.
BMD was re-measured at the 48-week visit.

[3] = system: postmenopausal women with osteoporosis; assay: ACTIVE trial: bone turnover markers (CTX, P1NP); conditions: at 18 months
Experimental: as §1
BMD and bone turnover biomarkers (CTX and P1NP) were also evaluated in all patient groups to compare the effects of abaloparatide versus teriparatide.

[4] = 24 weeks, abaloparatide 80 μg, teriparatide 20 μg, valid-completers
[5] = 48 weeks (extension), 20 μg daily SC

## CC[C@H](C)[C@H](NC(=O)[C@H](CCC(=O)O)NC(=O)[C@H](CO)NC(=O)[C@@H](NC(=O)[C@@H](N)CO)C(C)C)C(=O)N[C@@H](CCC(N)=O)C(=O)N[C@@H](CC(C)C)C(=O)N[C@@H](CCSC)C(=O)N[C@@H](Cc1cnc[nH]1)C(=O)N[C@@H](CC(N)=O)C(=O)N[C@@H](CC(C)C)C(=O)NCC(=O)N[C@@H](CCCCN)C(=O)N[C@@H](Cc1cnc[nH]1)C(=O)N[C@@H](CC(C)C)C(=O)N[C@@H](CC(N)=O)C(=O)N[C@@H](CO)C(=O)N[C@@H](CCSC)C(=O)N[C@@H](CCC(=O)O)C(=O)N[C@@H](CCCN=C(N)N)C(=O)N[C@H](C(=O)N[C@@H](CCC(=O)O)C(=O)N[C@@H](Cc1c[nH]c2ccccc12)C(=O)N[C@@H](CC(C)C)C(=O)N[C@@H](CCCN=C(N)N)C(=O)N[C@@H](CCCCN)C(=O)N[C@@H](CCCCN)C(=O)N[C@@H](CC(C)C)C(=O)N[C@@H](CCC(N)=O)C(=O)N[C@@H](CC(=O)O)C(=O)N[C@H](C(=O)N[C@@H](Cc1cnc[nH]1)C(=O)N[C@@H](CC(N)=O)C(=O)N[C@@H](Cc1ccccc1)C(=O)O)C(C)C)C(C)C [teriparatide, hPTH(1-34)]
[1]
  Fracture Rate, incident clinical fractures: 4.3%
  Fracture Rate, incident non-vertebral fractures: 2.9%
  Fracture Rate, major osteoporotic fractures: 2.8%
  Fracture Rate, wrist: 2.1%
  Fracture Risk Reduction v. PBO, incident clinical fractures: 29%
  Fracture Risk Reduction v. PBO, incident non-vertebral fractures: 28%
  Fracture Risk Reduction v. PBO, major osteoporotic fractures: 33%
  Fracture Risk Reduction v. PBO, wrist: −13%
  Fracture rate, new vertebral fractures (excluding worsening): 0.84%
  Reduction of new vertebral fractures (excluding worsening) as compared to placebo: 80%
[1]; listed as TPTD
  Fracture Risk Reduction v. PBO, incident clinical fractures: 29%
  Fracture Risk Reduction v. PBO, incident non-vertebral fractures: 28%
  Fracture Risk Reduction v. PBO, major osteoporotic fractures: 33%
[1]; listed as Teriparatide
  Fracture Risk Reduction v. PBO, incident non-vertebral fractures: 28%
[2]; 24 weeks, 20 μg daily SC
  Femoral neck BMD increase: 1.1±4.6%
  Lumbar spine BMD increase (±SD): 5.5±4.1%
  Total hip BMD increase: 0.5±3.9%
[2]; [4]
  Percentage of subjects with a >3% BMD gain at the lumbar spine: 70%
  Percentage of subjects with a >3% total hip BMD gain: 16%
[2]; [5]
  Femoral neck BMD increase: 2.2%
  Lumbar spine BMD increase: 8.6%
  Total hip BMD increase: 1.3%
[3]
  CTX level compared to placebo: elevated levels compared to placebo
